# Where two headings read alike, the source gives them in different places.
# Columns and labels:
# Type in all cases: cell-based
# [1] = system: Staphylococcus aureus 45 RAR 2; assay: microbe, parasite or virus in culture; conditions: 45RAR2
# Procedure: (§1) The antimicrobial spectra of a number of compounds of the invention were tested by the following method:
# (§2) Twelve petri dishes containing successive aqueous dilutions of the test compound mixed with 10 ml of sterilized Brain Heart Infusion agar (Difco 0418-01-5) are prepared. Each plate is inoculated with 1:100 (or 1:10 for slow growing strains, primarily Micrococcus and Streptococcus) dilutions of up to 32 different microorganisms, using a Steers replicator block The inoculated plates are incubated at 35°-37° C. for 20-24 hours. In addition, a control plate, using BHI agar containing no test compound, is prepared and incubated at the beginning and end of each test.
# (§3) An additional plate containing a compound having known susceptibility patterns for the organisms being tested and belonging to the same antibiotic class as the test compound is also prepared and incubated as a further control, as well as to provide test-to-test comparability. Erythromycin A was used for this purpose.
# (§4) After incubation, each disk is read. The MIC is defined as the lowest concentration of drug yielding no growth, a slight haze, or sparsely isolated colonies on the inoculum spot as compared to the growth control.
# [2] = system: Streptococcus pyogenes 930 CONST; assay: In vitro antibacterial activity, agar dilution MIC
# Procedure: as §1, §2, §3, §4
# Staphylococcus aureus 45 = assay: In vitro antibacterial activity, agar dilution MIC; conditions: S. aureus 45, Brain Heart Infusion agar, 20-24 hours, read-out: MIC
# Procedure: as §1, §2, §3, §4
# [3] = system: Streptococcus agalactiae CMX 508; assay: In vitro antibacterial activity, agar dilution MIC
# Procedure: as §1, §2, §3, §4
# [4] = system: Staphylococcus aureus ATCC 6538P; assay: In vitro antibacterial activity, agar dilution MIC; conditions: ATCC6538P, S. aureus ATCC 6538P, Brain Heart Infusion agar, 35-37° C., 20-24 hours, read-out: MIC
# Procedure: as §1, §2, §3, §4
# [5] = system: Streptococcus bovis A5169; assay: In vitro antibacterial activity, agar dilution MIC
# Procedure: as §1, §2, §3, §4
# Escherichia coli SS = assay: In vitro antibacterial activity, agar dilution MIC; conditions: read-out: MIC
# Procedure: as §1, §2, §3, §4
# [6] = system: Staphylococcus epidermidis 3519; assay: In vitro antibacterial activity, agar dilution MIC; conditions: S. epidermidis 3519, Brain Heart Infusion agar, 20-24 hours, read-out: MIC
# Procedure: as §1, §2, §3, §4
# Escherichia coli Juhl = assay: In vitro antibacterial activity, agar dilution MIC
# Procedure: as §1, §2, §3, §4
# [7] = system: Streptococcus pyogenes EES61; assay: In vitro antibacterial activity, agar dilution MIC; conditions: S. pyogenes EES61, Brain Heart Infusion agar, 20-24 hours, read-out: MIC
# Procedure: as §1, §2, §3, §4
# Escherichia coli H560 = assay: In vitro antibacterial activity, agar dilution MIC
# Procedure: as §1, §2, §3, §4
# Escherichia coli DC-2 = assay: In vitro antibacterial activity, agar dilution MIC
# Procedure: as §1, §2, §3, §4
# [8] = system: Micrococcus luteus ATCC 4698; assay: In vitro antibacterial activity, agar dilution MIC; conditions: ATCC4698, M. luteus ATCC 4698, Brain Heart Infusion agar, 20-24 hours, read-out: MIC
# Procedure: as §1, §2, §3, §4
# [9] = system: Micrococcus luteus ATCC 9341; assay: In vitro antibacterial activity, agar dilution MIC
# Procedure: as §1, §2, §3, §4
# [10] = system: Staphylococcus aureus CMX 503A; assay: In vitro antibacterial activity, agar dilution MIC; conditions: CMX503A
# Procedure: as §1, §2, §3, §4
# [11] = system: Enterococcus faecium ATCC 8043; assay: In vitro antibacterial activity, agar dilution MIC
# Procedure: as §1, §2, §3, §4
# [12] = system: Streptococcus pyogenes 2548 INDUC; assay: In vitro antibacterial activity, agar dilution MIC; conditions: S. pyogenes 2548 INDUC, Brain Heart Infusion agar, 20-24 hours, read-out: MIC
# Procedure: as §1, §2, §3, §4
# [13] = system: Staphylococcus aureus CMX 686B; assay: In vitro antibacterial activity, agar dilution MIC; conditions: CMX686B
# Procedure: as §1, §2, §3, §4
# [14] = system: Staphylococcus aureus CMX 553; assay: In vitro antibacterial activity, agar dilution MIC
# Procedure: as §1, §2, §3, §4
# [15] = system: Staphylococcus aureus A5177; assay: In vitro antibacterial activity, agar dilution MIC; conditions: S. aureus A5177, Brain Heart Infusion agar, 20-24 hours, read-out: MIC
# Procedure: as §1, §2, §3, §4
# [16] = system: Staphylococcus aureus NCTC 10649; assay: In vitro antibacterial activity, agar dilution MIC; conditions: NCTC10649, S. aureus NCTC 10649, Brain Heart Infusion agar, 20-24 hours, read-out: MIC
# Procedure: as §1, §2, §3, §4
# [17] = system: Staphylococcus aureus 642A; assay: In vitro antibacterial activity, agar dilution MIC; conditions: S. aureus 642A, Brain Heart Infusion agar, 20-24 hours, read-out: MIC
# Procedure: as §1, §2, §3, §4
# [18] = CMX508, S. agalactiae CMX 508, Brain Heart Infusion agar, 20-24 hours, read-out: MIC
# [19] = S. bovis A5169, Brain Heart Infusion agar, 20-24 hours, read-out: MIC
# [20] = E. coli SS, Brain Heart Infusion agar, 20-24 hours
# [21] = E. coli Juhl, Brain Heart Infusion agar, 20-24 hours, read-out: MIC
# [22] = E. coli H560, Brain Heart Infusion agar, 20-24 hours, read-out: MIC
# [23] = DC2, E. coli DC-2, Brain Heart Infusion agar, 20-24 hours, read-out: MIC
# [24] = ATCC9341, M. luteus ATCC 9341, Brain Heart Infusion agar, 20-24 hours, read-out: MIC
# [25] = ATCC8043, E. faecium ATCC 8043, Brain Heart Infusion agar, 20-24 hours, read-out: MIC
# [26] = S. pyogenes 930 CONST, Brain Heart Infusion agar, 20-24 hours, read-out: MIC
# [27] = CMX553, S. aureus CMX 553, Brain Heart Infusion agar, 20-24 hours, read-out: MIC
# [28] = S. aureus CMX 503A, Brain Heart Infusion agar, 20-24 hours, read-out: MIC
# [29] = S. aureus CMX 686B, Brain Heart Infusion agar, 20-24 hours, read-out: MIC
structure (smiles),measurement,setting,value
CC[C@H]1OC(=O)[C@H](C)[C@@H](O[C@H]2C[C@@](C)(OC)[C@@H](O)[C@H](C)O2)[C@H](C)[C@@H](O[C@@H]2O[C@H](C)C[C@H](N(C)C)[C@H]2O)[C@](C)(O)C[C@@H](C)[C@@H](N2CCNCC2)[C@H](C)[C@@H](O)[C@]1(C)O [Example 15],MIC,[1],12.5 µg/mL
same,MIC,[2]; 930CONST,> 100 µg/mL
same,MIC,Staphylococcus aureus 45,12.5 µg/mL
same,MIC,[3]; [18],1.56 µg/mL
same,MIC,[4],3.1 µg/mL
same,MIC,[5]; [19],1.56 µg/mL
same,MIC,Escherichia coli SS; [20],1.56 µg/mL
same,MIC,[6],6.2 µg/mL
same,MIC,Escherichia coli Juhl; [21],> 100 µg/mL
same,MIC,[7],1.56 µg/mL
same,MIC,Escherichia coli H560; [22],100 µg/mL
same,MIC,Escherichia coli DC-2; [23],> 100 µg/mL
same,MIC,[8],12.5 µg/mL
same,MIC,[9]; [24],3.1 µg/mL
same,MIC,[10],6.2 µg/mL
same,MIC,[11]; [25],12.5 µg/mL
same,MIC,[12],100 µg/mL
same,MIC,[13],6.2 µg/mL
same,MIC,[14]; CMX553,6.2 µg/mL
same,MIC,[15],> 100 µg/mL
CC[C@H]1OC(=O)[C@H](C)[C@@H](O[C@H]2C[C@@](C)(OC)[C@@H](O)[C@H](C)O2)[C@H](C)[C@@H](O[C@@H]2O[C@H](C)C[C@H](N(C)C)[C@H]2O)[C@](C)(O)C[C@@H](C)[C@@H](N2CCCC2)[C@H](C)[C@@H](O)[C@]1(C)O [Example 3],MIC,[1],1.56 µg/mL
same,MIC,[2]; [26],> 100 µg/mL
same,MIC,Staphylococcus aureus 45,0.78 µg/mL
same,MIC,[3]; [18],0.2 µg/mL
same,MIC,[4],1.56 µg/mL
same,MIC,[5]; [19],0.1 µg/mL
same,MIC,Escherichia coli SS; [20],0.39 µg/mL
same,MIC,[6],1.56 µg/mL
same,MIC,Escherichia coli Juhl; [21],> 100 µg/mL
same,MIC,[7],0.1 µg/mL
same,MIC,Escherichia coli H560; [22],50 µg/mL
same,MIC,Escherichia coli DC-2; [23],100 µg/mL
same,MIC,[8],0.78 µg/mL
same,MIC,[9]; [24],0.39 µg/mL
same,MIC,[10],1.56 µg/mL
same,MIC,[11]; [25],0.39 µg/mL
same,MIC,[12],50 µg/mL
same,MIC,[13],1.56 µg/mL
same,MIC,[14]; [27],1.56 µg/mL
same,MIC,[15],25 µg/mL
CC[C@H]1OC(=O)[C@H](C)[C@@H](O[C@H]2C[C@@](C)(OC)[C@@H](O)[C@H](C)O2)[C@H](C)[C@@H](O[C@@H]2O[C@H](C)C[C@H](N(C)C)[C@H]2O)[C@](C)(O)C[C@@H](C)[C@@H](N2CCN(C(=O)OCc3ccccc3)CC2)[C@H](C)[C@@H](O)[C@]1(C)O [Example 18],MIC,[1],1.56 µg/mL
same,MIC,[2]; [26],50 µg/mL
same,MIC,Staphylococcus aureus 45,0.78 µg/mL
same,MIC,"[3]; CMX508, read-out: MIC",0.2 µg/mL
same,MIC,[4],0.78 µg/mL
same,MIC,[5]; [19],0.05 µg/mL
same,MIC,Escherichia coli SS; [20],3.1 µg/mL
same,MIC,[6],0.78 µg/mL
same,MIC,Escherichia coli Juhl; [21],> 100 µg/mL
same,MIC,[7],0.1 µg/mL
same,MIC,Escherichia coli H560; H560,50 µg/mL
same,MIC,Escherichia coli DC-2; [23],> 100 µg/mL
same,MIC,[8],0.78 µg/mL
same,MIC,[9]; ATCC9341,0.1 µg/mL
same,MIC,[10]; [28],0.78 µg/mL
same,MIC,[11]; [25],0.39 µg/mL
same,MIC,[12],12.5 µg/mL
same,MIC,[13]; [29],0.78 µg/mL
same,MIC,[14]; [27],0.78 µg/mL
same,MIC,[15],12.5 µg/mL
CC[C@H]1OC(=O)[C@H](C)[C@@H](O[C@H]2C[C@@](C)(OC)[C@@H](O)[C@H](C)O2)[C@H](C)[C@@H](O[C@@H]2O[C@H](C)C[C@H](N(C)C)[C@H]2O)[C@](C)(O)C[C@@H](C)[C@@H](N2CCN(C(C)=O)CC2)[C@H](C)[C@@H](O)[C@]1(C)O [Example 16],MIC,[1],3.1 µg/mL
same,MIC,[2]; 930CONST,> 100 µg/mL
same,MIC,Staphylococcus aureus 45,1.56 µg/mL
same,MIC,[3]; [18],0.39 µg/mL
same,MIC,[4],1.56 µg/mL
same,MIC,[5],0.1 µg/mL
same,MIC,Escherichia coli SS; [20],1.56 µg/mL
same,MIC,[6],1.56 µg/mL
same,MIC,Escherichia coli Juhl; [21],> 100 µg/mL
same,MIC,[7],0.1 µg/mL
same,MIC,Escherichia coli H560; H560,50 µg/mL
same,MIC,Escherichia coli DC-2; [23],> 100 µg/mL
same,MIC,[8],1.56 µg/mL
same,MIC,"[9]; ATCC9341, read-out: MIC",0.2 µg/mL
same,MIC,[10]; [28],1.56 µg/mL
same,MIC,[11]; [25],0.78 µg/mL
same,MIC,[12],50 µg/mL
same,MIC,[13]; [29],1.56 µg/mL
same,MIC,[14]; [27],1.56 µg/mL
same,MIC,[15],50 µg/mL
CC[C@H]1OC(=O)[C@H](C)[C@@H](O[C@H]2C[C@@](C)(OC)[C@H](N)[C@H](C)O2)[C@H](C)[C@@H](O[C@@H]2O[C@H](C)C[C@H](N(C)C)[C@H]2O)[C@](C)(O)C[C@@H](C)[C@@H](N2CCCCC2)[C@H](C)[C@@H](O)[C@]1(C)O [Example 32],MIC,[1],1.56 µg/mL
same,MIC,[2]; 930CONST,> 100 µg/mL
same,MIC,Staphylococcus aureus 45,0.78 µg/mL
same,MIC,[3]; [18],0.1 µg/mL
same,MIC,[4],0.78 µg/mL
same,MIC,[5]; read-out: MIC,0.02 µg/mL
same,MIC,Escherichia coli SS,0.2 µg/mL
same,MIC,[6],0.78 µg/mL
same,MIC,[16],1.56 µg/mL
same,MIC,Escherichia coli Juhl,25 µg/mL
same,MIC,[7],0.1 µg/mL
same,MIC,Escherichia coli H560; [22],3.1 µg/mL
same,MIC,Escherichia coli DC-2; DC2,12.5 µg/mL
same,MIC,[8],0.78 µg/mL
same,MIC,[9]; [24],0.05 µg/mL
same,MIC,[10]; [28],0.39 µg/mL
same,MIC,"[11]; ATCC8043, read-out: MIC",0.2 µg/mL
same,MIC,[12],6.2 µg/mL
same,MIC,[17],1.56 µg/mL
same,MIC,[13]; [29],0.78 µg/mL
same,MIC,[14]; [27],0.78 µg/mL
same,MIC,[15],6.2 µg/mL

# From patent US5075289A, “9-R-azacyclic erythromycin antibiotics” (priority 1988, dated 1991)
